# Read-outs that look alike come from different tables or passages of the source.
# Key:
# F508del/F508del CFTR = molecular target: T1, F508del/F508del CFTR (Homo sapiens, UniProt P13569, DEL508-508); experiment: Trans-Epithelial Current Clamp (TECC) assay using primary human bronchial epithelial cells; type: cell-based; conditions: for Emax (% Dual): maximum percent activity relative to positive control (co-corrector 0.15 μM + potentiator 0.45 μM = 100%), primary hBE cells F508del/F508del; for EC50: primary hBE cells homozygous F508del/F508del, test C2 corrector with co-corrector and potentiator, 18-24 hours at 37° C., equivalent CFTR current (IEQ)/AUC
# T1 construct: cells isolated from CF patients with the homozygous mutation; endogenous in cells; host or cells: primary human bronchial epithelial (hBE) cells from CF patients homozygous for F508del
# How it was run: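 F508del/F508del primary hBE cells grown 35 days at air-liquid interface were treated basolaterally with C2 correctors plus fixed co-corrector and potentiator for 18-24 h at 37° C. TECC-24 current clamp at 36.5° C in HEPES-buffered F-12 Coon's, pH 7.4; equivalent current IEQ=VT/RT, plus AUC between forskolin peak and bumetanide.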
# F508delCFTR = molecular target: T2, F508delCFTR (Homo sapiens, UniProt P13569, DEL508-508); experiment: Cell Surface Expression-Horse Radish Peroxidase (CSE-HRP) assay in CFBE41o-F508delCFTR-HRP cells; type: cell-based; conditions: for EC50: CFBE41o-F508delCFTR-HRP cells, 18-24 hours at 33° C., luminescence; for Maximum % activity (without co-corrector) / Maximum % activity (with co-corrector): normalized to on-plate positive control corrector (2 μM)
# T2 construct: expressed in transfected cells; host or cells: CFBE41o- human lung-derived epithelial cell line, doxycycline-inducible expression
# How it was run: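 CFBE41o- cells expressing F508delCFTR with HRP in the fourth exofacial loop were doxycycline-induced (0.5 μg/mL) for 68–72 h, then exposed to correctors for 18–24 h at 33 °C, with or without 2 μM co-corrector. Surface HRP was read by luminol luminescence, and % activity was normalized to the on-plate positive control; EC50 came from a variable-slope sigmoidal fit (8 points, 3-fold dilution, 20 or 30 μM top).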
# [1] = with co-corrector (2 μM), read-out: EC50 (with co-corrector)
# [2] = without co-corrector, read-out: EC50 (without co-corrector)
# T2 sequence (P13569 with tags, fused parts or gaps DEL508-508): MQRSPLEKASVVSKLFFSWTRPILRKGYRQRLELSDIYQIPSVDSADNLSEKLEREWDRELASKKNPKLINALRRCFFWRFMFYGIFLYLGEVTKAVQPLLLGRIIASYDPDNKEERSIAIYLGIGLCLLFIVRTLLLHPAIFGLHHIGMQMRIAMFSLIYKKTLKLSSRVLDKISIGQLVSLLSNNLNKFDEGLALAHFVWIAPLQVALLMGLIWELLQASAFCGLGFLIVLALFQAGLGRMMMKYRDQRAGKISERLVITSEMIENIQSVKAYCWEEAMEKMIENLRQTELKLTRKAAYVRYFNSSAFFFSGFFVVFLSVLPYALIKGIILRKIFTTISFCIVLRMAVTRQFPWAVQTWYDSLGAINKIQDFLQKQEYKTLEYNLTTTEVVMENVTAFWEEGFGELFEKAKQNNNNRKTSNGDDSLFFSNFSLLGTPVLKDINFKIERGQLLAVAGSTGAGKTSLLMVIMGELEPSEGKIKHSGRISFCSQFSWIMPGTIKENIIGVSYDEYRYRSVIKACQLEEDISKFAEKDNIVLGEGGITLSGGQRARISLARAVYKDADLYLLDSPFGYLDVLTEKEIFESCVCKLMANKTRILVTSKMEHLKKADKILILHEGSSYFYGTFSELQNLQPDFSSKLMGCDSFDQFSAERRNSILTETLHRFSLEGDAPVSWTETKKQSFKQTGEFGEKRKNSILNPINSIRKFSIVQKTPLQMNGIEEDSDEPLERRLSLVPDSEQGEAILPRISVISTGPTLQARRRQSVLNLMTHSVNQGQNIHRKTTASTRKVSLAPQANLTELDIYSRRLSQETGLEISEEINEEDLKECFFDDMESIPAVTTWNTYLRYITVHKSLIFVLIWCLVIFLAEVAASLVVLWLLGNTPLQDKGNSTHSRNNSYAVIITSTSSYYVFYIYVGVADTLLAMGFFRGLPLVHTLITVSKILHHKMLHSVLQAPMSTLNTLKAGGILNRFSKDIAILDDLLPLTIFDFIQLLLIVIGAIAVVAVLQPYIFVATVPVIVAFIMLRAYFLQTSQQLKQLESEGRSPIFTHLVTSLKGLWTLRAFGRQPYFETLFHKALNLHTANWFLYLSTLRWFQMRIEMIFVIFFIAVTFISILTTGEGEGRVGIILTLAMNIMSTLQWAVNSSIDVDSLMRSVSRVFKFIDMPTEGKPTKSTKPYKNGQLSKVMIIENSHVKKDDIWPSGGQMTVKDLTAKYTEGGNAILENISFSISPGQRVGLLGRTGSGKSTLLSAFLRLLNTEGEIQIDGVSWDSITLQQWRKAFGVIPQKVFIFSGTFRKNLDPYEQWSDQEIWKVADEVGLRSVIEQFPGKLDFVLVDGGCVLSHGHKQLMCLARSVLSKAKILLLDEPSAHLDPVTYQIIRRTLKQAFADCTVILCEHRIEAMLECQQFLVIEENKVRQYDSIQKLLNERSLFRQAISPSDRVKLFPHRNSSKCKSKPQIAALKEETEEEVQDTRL
# T1 sequence (P13569 with tags, fused parts or gaps DEL508-508): as above
SMILES,Emax (% Dual) (F508del/F508del CFTR),EC50 (F508del/F508del CFTR),EC50 (F508delCFTR; [1]),EC50 (F508delCFTR; [2]),Maximum % activity (without co-corrector) (F508delCFTR; without co-corrector),Maximum % activity (with co-corrector) (F508delCFTR; with co-corrector (2 μM))
"COc1ccc(C)cc1[C@]1(C(=O)NS(=O)(=O)c2cccc3nc(C)ccc23)C[C@@H]1c1ccccn1 [Example 14, (1S,2S)-1-(2-methoxy-5-methylphenyl)-N-(2-methylquinoline-5-sulfonyl)-2-(pyridin-2-yl)cyclopropane-1-carboxamide]",165 % Dual,799 nM,2800 nM,3810 nM,520%,
"COc1ccc(C)cc1[C@@]1(C(=O)NS(=O)(=O)c2cccc3nc(C)ccc23)C[C@H]1c1ccccc1F (single isomer, unassigned) [Example 26]",293 % Dual,2.8 nM,337 nM,368 nM,515%,
"CCOc1cnc([C@@H]2C[C@]2(C(=O)NS(=O)(=O)c2cccc3nc(C)ccc23)c2cc(C)ccc2OC)cn1 (single isomer, unassigned) [Example 65]",208 % Dual,19.3 nM,586 nM,1340 nM,394%,828%
"COc1ccc(C)cc1[C@]1(C(=O)NS(=O)(=O)c2cccc3nc(C)ccc23)C[C@@H]1c1cnc(C)cn1 (racemic) [Example 89, rac-(1r,2r)-1-(2-methoxy-5-methylphenyl)-2-(5-methylpyrazin-2-yl)-N-(2-methylquinoline-5-sulfonyl)cyclopropane-1-carboxamide]",322 % Dual,142 nM,1260 nM,2240 nM,447%,935%
"COc1ccc(C)cc1[C@@]1(C(=O)NS(=O)(=O)c2cccc3nc(C)ccc23)C[C@H]1c1cccc(F)c1 (single isomer, unassigned) [Example 21]",213 % Dual,2 nM,506 nM,1090 nM,,
"COc1ccc(C)cc1[C@@]1(C(=O)NS(=O)(=O)c2cccc3nc(C)ccc23)C[C@H]1c1ccc(C)cc1 (racemic) [Example 4, rac-(1r,2s)-1-(2-methoxy-5-methylphenyl)-2-(4-methylphenyl)-N-(2-methylquinoline-5-sulfonyl)cyclopropane-1-carboxamide]",417 % Dual,1.5 nM,421 nM,489 nM,944%,
"COc1ccc(C)cc1[C@@]1(C(=O)NS(=O)(=O)c2cccc3nc(C)ccc23)C[C@H]1c1ccccc1 (racemic) [Example 1, rac-(1r,2s)-1-(2-methoxy-5-methylphenyl)-N-(2-methylquinoline-5-sulfonyl)-2-phenylcyclopropane-1-carboxamide]",389 % Dual,5 nM,1430 nM,2840 nM,,
"COc1ccc([C@H]2C[C@@]2(C(=O)NS(=O)(=O)c2cccc3nc(C)ccc23)c2cc(C)ccc2OC)cn1 [Example 32, (1S,2R)-1-(2-methoxy-5-methylphenyl)-2-(6-methoxypyridin-3-yl)-N-(2-methylquinoline-5-sulfonyl)cyclopropane-1-carboxamide]",259 % Dual,9.1 nM,1440 nM,2960 nM,,
"COc1ccc(C)cc1[C@]1(C(=O)NS(=O)(=O)c2cccc3nc(C)ccc23)C[C@@H]1c1cnc(OC)c(Cl)c1 [Example 102, (1S,2R)-2-(5-chloro-6-methoxypyridin-3-yl)-1-(2-methoxy-5-methylphenyl)-N-(2-methylquinoline-5-sulfonyl)cyclopropane-1-carboxamide]",397 % Dual,32.7 nM,825 nM,2300 nM,,
"COc1ncc([C@H]2C[C@@]2(C(=O)NS(=O)(=O)c2cccc3nc(C)ccc23)c2cc(C)ccc2OC)cn1 (single isomer, unassigned) [Example 38]",202 % Dual,219 nM,1810 nM,3020 nM,419%,995%
"COc1ccc(C)cc1[C@]1(C(=O)NS(=O)(=O)c2cccc3nc(C)ccc23)C[C@@H]1c1cnc(C)c(F)c1 (single isomer, unassigned) [Example 100]",207 % Dual,114 nM,2780 nM,4490 nM,,
"COc1ccc(C)cc1[C@]1(C(=O)NS(=O)(=O)c2cccc3nc(C)ccc23)C[C@@H]1c1cnc(OC)c(C)c1 [Example 103, (1S,2R)-1-(2-methoxy-5-methylphenyl)-2-(6-methoxy-5-methylpyridin-3-yl)-N-(2-methylquinoline-5-sulfonyl)cyclopropane-1-carboxamide]",266 % Dual,1.8 nM,587 nM,714 nM,800%,
"COc1ccc(C)cc1[C@@]1(C(=O)NS(=O)(=O)c2cccc3nc(C)ccc23)C[C@H]1c1ccc(C)nc1OC (single isomer, unassigned) [Example 85]",206 % Dual,24.7 nM,810 nM,1010 nM,786%,
"COc1ccc(C)cc1[C@@]1(C(=O)NS(=O)(=O)c2cccc3nc(C)ccc23)C[C@H]1c1cncc(F)c1 (single isomer, unassigned) [Example 53]",169 % Dual,> 300 nM,2610 nM,3980 nM,229%,625%
"CCOc1nc(C2C[C@@]2(C(=O)NS(=O)(=O)c2cccc3nc(C)ccc23)c2cc(C)ccc2OC)ccc1F (stereo in doubt) [Example 106, (1S,2S)-2-(6-ethoxy-5-fluoropyridin-2-yl)-1-(2-methoxy-5-methylphenyl)-N-(2-methylquinoline-5-sulfonyl)cyclopropane-1-carboxamide]",188 % Dual,11.6 nM,222 nM,,,
"COc1ccc(C)cc1[C@@]1(C(=O)NS(=O)(=O)c2cccc3nc(C)ccc23)C[C@H]1c1cccnc1OC (racemic) [Example 40, rac-(1r,2s)-1-(2-methoxy-5-methylphenyl)-2-(2-methoxypyridin-3-yl)-N-(2-methylquinoline-5-sulfonyl)cyclopropane-1-carboxamide]",328 % Dual,19.6 nM,749 nM,1550 nM,448%,934%
"COc1ccc(C)cc1[C@@]1(C(=O)NS(=O)(=O)c2cccc3nc(C)ccc23)C[C@H]1c1ccccc1F (racemic) [Example 22, rac-(1r,2r)-2-(2-fluorophenyl)-1-(2-methoxy-5-methylphenyl)-N-(2-methylquinoline-5-sulfonyl)cyclopropane-1-carboxamide]",268 % Dual,9 nM,844 nM,929 nM,,
"COc1ccc(C)cc1[C@@]1(C(=O)NS(=O)(=O)c2cccc3nc(C)ccc23)C[C@H]1c1ccc(C(F)(F)F)cc1 (single isomer, unassigned) [Example 19]",215 % Dual,9.6 nM,588 nM,1010 nM,,
